Laboratory results as given in the supplement of paper PMC10307832.

Experiments:
Experiment in all cases: relative viability (nuclei count vs DMSO), 5 days (fraction); higher = more cells survive
Venetoclax + Tozasertib = compound: CC1(C)CCC(CN2CCN(c3ccc(C(=O)NS(=O)(=O)c4ccc(NCC5CCOCC5)c([N+](=O)[O-])c4)c(Oc4cnc5[nH]ccc5c4)c3)CC2)=C(c2ccc(Cl)cc2)C1 [Venetoclax] + Cc1cc(Nc2cc(N3CCN(C)CC3)nc(Sc3ccc(NC(=O)C4CC4)cc3)n2)n[nH]1 [Tozasertib] (partner 0.1 µM)
Method in brief: (§1)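 Lung cancer cell lines were seeded in 1536-well plates and dosed by pin tool the next day, with either a single drug or a fixed anchor-drug dose combined with five library-drug doses (not always all listed) spaced in √10 steps. Five days later, one step fixed the cells and stained their nuclei (final 0.05% Triton X-100, 1% formaldehyde, 1 ug/ml Hoechst), and nuclei were counted on 4× images. Relative viability is the nuclei count in treated wells divided by the count in vehicle wells, and each value is the median of duplicate plates.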

[1] = compound: Cn1cnc2c(F)c(Nc3ccc(Br)cc3Cl)c(C(=O)NOCCO)cc21 [Selumetinib] + CC(=O)c1c(C)c2cnc(Nc3ccc(N4CCNCC4)cn3)nc2n(C2CCCC2)c1=O [Palbociclib] (partner 0.5 µM)
Method in brief: as §1

Selumetinib + Navitoclax = compound: Cn1cnc2c(F)c(Nc3ccc(Br)cc3Cl)c(C(=O)NOCCO)cc21 [Selumetinib] + CC1(C)CCC(c2ccc(Cl)cc2)=C(CN2CCN(c3ccc(C(=O)NS(=O)(=O)c4ccc(N[C@H](CCN5CCOCC5)CSc5ccccc5)c(S(=O)(=O)C(F)(F)F)c4)cc3)CC2)C1 [Navitoclax] (partner 0.5 µM)
Method in brief: as §1

Selumetinib + Linsitinib = compound: Cn1cnc2c(F)c(Nc3ccc(Br)cc3Cl)c(C(=O)NOCCO)cc21 [Selumetinib] + C[C@]1(O)C[C@@H](c2nc(-c3ccc4ccc(-c5ccccc5)nc4c3)c3c(N)nccn32)C1 [Linsitinib] (partner 1 µM)
Method in brief: as §1

Cell Line | relative viability (Venetoclax + Tozasertib; first compound 0.01 µM) | relative viability (Venetoclax + Tozasertib; first compound 0.03162 µM) | relative viability (Venetoclax + Tozasertib; first compound 0.1 µM) | relative viability (Venetoclax + Tozasertib; first compound 0.3162 µM) | relative viability (Venetoclax + Tozasertib; first compound 1 µM) | relative viability ([1]; first compound 0.02 µM) | relative viability ([1]; first compound 0.06325 µM) | relative viability ([1]; first compound 0.2 µM) | relative viability ([1]; first compound 0.6325 µM) | relative viability (Selumetinib + Navitoclax; first compound 0.02 µM) | relative viability (Selumetinib + Navitoclax; first compound 0.06325 µM) | relative viability (Selumetinib + Navitoclax; first compound 0.2 µM) | relative viability (Selumetinib + Navitoclax; first compound 0.6325 µM) | relative viability (Selumetinib + Linsitinib; first compound 0.02 µM) | relative viability (Selumetinib + Linsitinib; first compound 0.06325 µM) | relative viability (Selumetinib + Linsitinib; first compound 0.2 µM) | relative viability (Selumetinib + Linsitinib; first compound 0.6325 µM)
LC-2-ad | 0.418 | 0.398 | 0.425 | 0.535 | 0.433 | 0.504 | 0.547 | 0.492 | 0.453 | 0.4 | 0.359 | 0.442 | 0.46 | 0.824 | 0.801 | 0.653 | 0.9
NCI-H460 | 0.473 | 0.387 | 0.126 | 0.266 | 0.25 | 0.147 | 0.142 | 0.0907 | 0.0517 | 1.18 | 0.916 | 0.86 | 0.578 | 0.666 | 0.429 | 0.262 | 0.214
NCI-H441 | 0.587 | 0.603 | 0.86 | 0.676 | 0.507 | 0.168 | 0.154 | 0.157 | 0.139 | 0.959 | 0.574 | 0.839 | 0.546 | 0.543 | 0.46 | 0.491 | 0.435
LCLC-97TM1 | 0.302 | 0.27 | 0.207 | 0.185 | 0.202 | 0.188 | 0.213 | 0.163 | 0.19 | 0.497 | 0.606 | 0.368 | 0.309 | 0.227 | 0.193 | 0.207 | 0.2
COR-L23 | 0.206 | 0.217 | 0.231 | 0.16 | 0.182 | 0.311 | 0.289 | 0.301 | 0.241 | 1.05 | 0.926 | 1.06 | 1.04 | 0.945 | 0.88 | 0.864 | 0.787
NCI-H2228 | 0.251 | 0.313 | 0.288 | 0.246 | 0.25 | 0.566 | 0.516 | 0.669 | 0.481 | 0.928 | 0.678 | 0.789 | 0.729 | 0.605 | 0.628 | 0.671 | 0.359
LCLC-103H | 0.575 | 0.396 | 0.36 | 0.51 | 0.454 | 0.467 | 0.498 | 0.469 | 0.439 | – | – | – | – | 1.04 | 0.952 | 0.804 | 0.968
NCI-H1993 | 0.588 | 0.561 | 0.614 | 0.58 | 0.607 | 0.592 | 0.557 | 0.527 | 0.427 | 0.801 | 0.79 | 0.749 | 0.648 | 0.746 | 0.688 | 0.754 | 0.878
NCI-H1793 | 0.227 | 0.347 | 0.321 | 0.297 | 0.237 | 0.267 | 0.293 | 0.249 | 0.199 | 0.478 | 0.304 | 0.311 | 0.281 | 0.883 | 0.817 | 0.419 | 0.392
NCI-H1792 | – | – | – | – | – | 0.646 | 0.566 | 0.46 | 0.4 | 0.741 | 0.641 | 0.522 | 0.533 | 0.442 | 0.475 | 0.361 | 0.251
NCI-H661 | 0.353 | 0.335 | 0.313 | 0.345 | 0.333 | 0.415 | 0.384 | 0.418 | 0.382 | – | – | – | – | 0.614 | 0.455 | 0.469 | 0.457
ChaGo-K-1 | 0.236 | 0.218 | 0.224 | 0.208 | 0.227 | 0.94 | 0.966 | 0.895 | 0.848 | 0.878 | 0.956 | 0.911 | 1.23 | – | – | – | –
NCI-H522 | 0.605 | 0.481 | 0.599 | 0.555 | 0.437 | 0.98 | 0.92 | 0.755 | 0.793 | – | – | – | – | – | – | – | –
NCI-H1648 | 0.235 | 0.574 | 0.54 | 0.471 | 0.415 | – | 0.307 | 0.237 | 0.296 | – | – | – | – | – | – | – | –
NCI-H650 | 0.682 | 0.719 | 0.685 | 0.697 | 0.674 | 0.395 | 0.571 | 0.516 | 0.521 | – | – | – | – | 1.18 | 1.03 | 0.941 | 1.07
NCI-H1650 | 0.456 | 0.409 | 0.427 | 0.406 | 0.299 | 0.312 | 0.26 | 0.357 | 0.27 | 1 | 0.893 | 0.904 | 1.01 | – | – | – | –
NCI-H2342 | 0.59 | 0.617 | 0.375 | 0.568 | 0.656 | 0.476 | 0.53 | 0.498 | 0.482 | – | – | – | – | – | – | – | –
NCI-H1299 | – | – | – | – | – | – | – | – | – | 1.02 | 1.09 | 1.05 | 0.899 | 0.996 | 0.833 | 0.88 | 0.677
SW 900 | 0.401 | 0.55 | 0.476 | 0.65 | 0.386 | 0.597 | 0.461 | 0.446 | 0.495 | – | – | – | – | – | – | – | –
A549 | – | – | – | – | – | – | – | – | – | 0.945 | 0.904 | 0.734 | 0.596 | 0.489 | 0.436 | 0.363 | 0.349
NCI-H2170 | 0.723 | 0.68 | 0.592 | 0.646 | 0.632 | 0.406 | 0.43 | 0.414 | 0.414 | 0.581 | 0.561 | 0.514 | 0.464 | – | – | – | –
NCI-H596 | 1.05 | 0.74 | 0.966 | 0.862 | 0.847 | – | – | – | – | 0.906 | 0.845 | 0.677 | 0.415 | 1.07 | 1.02 | 1.01 | 0.776
ABC-1 | 0.16 | 0.17 | 0.178 | 0.156 | 0.219 | 0.642 | 0.672 | 0.555 | 0.5 | – | – | – | – | 0.794 | 0.678 | 0.607 | 0.614
